Legend:
Format in all cases: cell-based, mouse
tau = test: Assay for tau: Western blot of tau isoforms in wild type mES cell-derived pyramidal neurons; set-up: key: *: asterisk denotes hit compounds; settings: treated at 14 DIV for 48 hr, Western blot (CP13, PHF)
Protocol: (§1) In certain embodiments, the inhibitor of the present invention is identified by an assay directed to detecting inhibitors of tau phosporylation. For example, but not by way of limitation, such assays can include assays such as those prepared as follows. First, wild type, mouse embryoinc stem cells are differentiated into pyramidal neurons using the protocol described in Example 1. ES cell-derived neurons are treated at 14 DIV for 48 hr with either vehicle (D, DMSO) or various histone demethylase inhibitors (inhibitor compounds 1-10). Tau isoforms are detected by Western blot analysis of the cell lysates using the indicated antibodies, See FIG. 11. CP13 recognizes tau phosphorylation at ser202/205. PHF recognizes tau phosphorylation at ser396/404. TUJ1 (Neuron-specific class III beta-tubulin) is used as a loading control.
as §1, with “Wild” for “In certain embodiments, the inhibitor of the present invention is identified by an assay directed to detecting inhibitors of tau phosporylation. For example, but not by way of limitation, such assays can include assays such as those prepared as follows. First, wild”, “were” for “are”
List of inhibitor compounds tested for their ability to inhibit levels of total tau, disease-associated phosphorylated or presence of modified forms of tau include (asterisk denotes hit compounds): *1. pargyline (LSD1 inhibitor)—1000 uM; *2. deprenyl (LSD1 inhibitor)—1000 uM; *3. propargyl (LSD1 inhibitor)—100 uM; 4. phenelzine (LSD1 inhibitor)—100 uM; 5. tranylcyprmine (LSD1 inhibitor)—200 uM; *6. S2101 (LSD1 Inhibitor II, EMD Biosciences catalog #489477)—LSD1 inhibitor—1 uM; 7. N-oxyalylglycine (NOG) (JMJD2s inhibitor)—1000 uM; *8. pyradine (JMJ2A and E inhibitor)—1000 uM; *9. disulfiram (JMJ2A inhibitor)—20 uM; *10. ebselen (JMJ2A inhibitor)—20 uM.

Aβ40 [1] = test: Screen of NIH clinical collection compounds for reduction of Aβ40 in Tg2576 mES cell derived neurons (Aβ40 ELISA); set-up: Percent Inhibition: concentration or dose not given beside the values; settings: for Percent Inhibition: Aβ40 in conditioned media vs DMSO control, neurons treated on day 8 after plating for 24 hours
Protocol: In certain embodiments, the inhibitor of the present invention is identified by an assay directed to detecting inhibitors of Aβ40 production. For example, but not by way of limitation, such assays can include assays such as those prepared as follows. First, mouse ES cells isolated from Tg2576 mice are subjected to directed differentiation as previously described. After dissociation of embryoid bodies, neurons are plated in poly-D-lysine and laminin coated 96 well black plates at a density of 1.5×10^5 cells/cm2 which is 45,000 cells/well. Media is changed to N2 containing media after 4 hours and again the next day after plating. Two days after plating, media is changed to B27 containing media which is replaced every 2 days after that. On day 8 after plating the mouse ES derived neurons are treated with the compound of interest. […] In certain embodiments the compounds are incubated with the cells for 24 hours in 150 μl B27 media. In certain embodiments each plate of ES derived neurons is treated with NCC compounds, DMSO (negative control), and the positive controls for Aβ reduction BACE inhibitor IV (Calbiochem) and Compound E. After 24 hours, 100 μl conditioned media can then be removed and frozen at −80° C. until further analysis for Aβ40 content. The remaining cells in 50 μl media can be subjected to cell viability assay CellQuanti Blue (BioAssay Systems). In certain embodiments, conditioned media can be subjected to Aβ40 quantification, e.g., by using Aβ40 ELISA (Invitrogen).
Mouse ES cells isolated from. Tg2576 mice were subjected to directed differentiation as previously described. After dissociation of embryoid bodies, neurons were plated in poly-D-lysine and laminin coated 96 well black plates at a density of 1.5×10^5 cells/cm2 which is 45,000 cells/well. Media was changed to N2 containing media after 4 hours and again the next day after plating. Two days after plating, media was changed to B27 containing media which was replaced every 2 days after that. […] Each plate of ES derived neurons was treated with NCC compounds, DMSO (negative control), and the positive controls for Aβ reduction BACE inhibitor IV (Calbiochem) and Compound E. After 24 hours, 100 μl conditioned media was removed and frozen at −80° C. until further analysis for Aβ40 content. The remaining cells in 50 μl media were subjected to cell viability assay CellQuanti Blue (BioAssay Systems). Conditioned media was subjected to Aβ40 quantification using Aβ40 ELISA (Invitrogen). Compounds which lowered Aβ40 levels in the conditioned media were identified as hits if they reduced Aβ40 by 4 standard deviations of the negative control (DMSO) but maintained cell viability. Cell viability was defined by CellQuanti Blue fluorescent signal maintained within two standard deviations of fluorescent signal from the control treated (DMSO) cells. High potency hits were defined by reducing Aβ40 40% or more (signal 60% of DMSO control).
Hits were defined as lowering Aβ by 4 standard deviations below the negative control (DMSO) treated condition but maintaining cell viability within 2 standard deviations of control.

sAPPα = test: Immunoprecipitation/Western blot of secreted sAPPα from conditioned medium of Tg2576 ES cell derived neurons
Source text: (§2) The reliable detection of proteolytic derivatives of APP, including AP, is critical for a physiologically relevant cell based AD model. It was established that ES cell-derived pyramidal neurons express the major proteolytic enzymes mediating APP processing, β-site APP cleaving enzyme (BACE1) and presenilin 1 (PS1) (FIG. 2a). Endogenous APP, BACE1 and PS1 were abundantly detected in ES cell-derived pyramidal neurons at DIV 7, 14, 21. APP and BACE1 were not detected in ES cells, but PS1 was detectable consistent with it's described role in development (Wong, P. C. et al. Nature 387, 288-292 (1997)). […] In Tg2576 ES cell derived neurons, APP cleavage products were readily detectable. C-terminal APP fragments (CTFs) were detected in the neuronal lysate by Western blot analysis (FIG. 2b). Both human β- and α-secretase-derived secreted soluble APP (sAPPβ and sAPPα, respectively) were detected using immunoprecipitation of conditioned medium with sβsw and Aβ levels were detected in conditioned media using a human Aβ specific ELISA (FIG. 2b-e). […] Identical results were seen when neurons were infected with an APPsw Lenti virus and APP processing was analyzed (FIG. 6a-c). […]
(§3) Day 12-30 neurons were infected with a lentivirus carrying the Swedish variant of human APP (pLenti6/hAPPsw). […] Samples were separated using the NuPAGE gel system and Aβ peptides detected by quantitative Western blotting with 6E10. […]

Aβ42 = Aβ42 detection by human specific ELISA in conditioned medium of Tg2576 mES cell derived neurons
Source text: (§4) The reliable detection of proteolytic derivatives of APP, including AP, is critical for a physiologically relevant cell based AD model. It was established that ES cell-derived pyramidal neurons express the major proteolytic enzymes mediating APP processing, β-site APP cleaving enzyme (BACE1) and presenilin 1 (PS1) (FIG. 2a). Endogenous APP, BACE1 and PS1 were abundantly detected in ES cell-derived pyramidal neurons at DIV 7, 14, 21. APP and BACE1 were not detected in ES cells, but PS1 was detectable consistent with it's described role in development (Wong, P. C. et al. Nature 387, 288-292 (1997)). To achieve robust and reproducible neuronal expression of human APP, ES cells from the inner cell mass of blastocysts were isolated from a well characterized mouse model of AD, Tg2576. Tg2576 mice express human APP, harboring the Swedish mutation (APPsw) under the control of hamster PrP promoter (Hsiao, K. et al. Science 274, 99-102 (1996)). […] In Tg2576 ES cell derived neurons, APP cleavage products were readily detectable. C-terminal APP fragments (CTFs) were detected in the neuronal lysate by Western blot analysis (FIG. 2b). Both human β- and α-secretase-derived secreted soluble APP (sAPPβ and sAPPα, respectively) were detected using immunoprecipitation of conditioned medium with sβsw and Aβ levels were detected in conditioned media using a human Aβ specific ELISA (FIG. 2b-e). […] Consistent with previous studies in cell models and mouse brain, CTFs resulting from APP cleavage, accumulated in response to γ-secretase inhibitor treatment (FIG. 2b). Identical results were seen when neurons were infected with an APPsw Lenti virus and APP processing was analyzed (FIG. 6a-c). […] Thus, these neurons are suitable for lentiviral mediated genetic manipulation studies.
(§5) To accommodate high-throughput screening, Aβ detection assays using the Tg2576 mES cell derived neurons were miniaturized for a 96 well platform. […] It was determined that the optimal cell density of 1.5×10^5 cells/cm^2 maximized the cell viability signal. […]
(§6) Day 12-30 neurons were infected with a lentivirus carrying the Swedish variant of human APP (pLenti6/hAPPsw). […] The levels of Aβ42 and Aβ40 in conditioned media were determined using sandwich ELISA (Invitrogen) according to the manufacturer's protocol. Total Aβ was detected by immunoprecipitating conditioned medium with 6E10 (Covance) or 7N22 (Invitrogen) antibodies overnight at 4° C. Samples were separated using the NuPAGE gel system and Aβ peptides detected by quantitative Western blotting with 6E10. Full-length APP was detected by Western blot analysis using 6E10 (Covance) or polyclonal antibody against the C-terminus of APP (APP-Ctmaxi) (Okada, H., et al. FASEB J. 24, 2783-94 (2010)). […]

sAPPβ = test: Immunoprecipitation/Western blot of secreted sAPPβ from conditioned medium of Tg2576 ES cell derived neurons
Source text: as §2, §3

Aβ40 [2] = test: Aβ40 detection by human specific ELISA in conditioned medium of Tg2576 mES cell derived neurons
Source text: as §4, §5, §6

[3] = Tg2576 ES cell derived neurons, conditioned medium
[4] = optimized 96 well platform, 24 hours

**Q.** With O=c1c2ccccc2[se]n1-c1ccccc1 [ebselen] as the molecule, how does the “ability to inhibit levels of total tau, disease-associated phosphorylated or presence of modified forms of tau” value (shortened to “ability to inhibit levels of total tau”) (tau; 20 uM) read?
**A.** *

**Q.** How did the “ability to inhibit levels of total tau” value (tau; 1 uM) turn out when NC1CC1c1cc(F)cc(F)c1OCc1ccccc1 (centres unmarked) [S2101] was run?
**A.** *

**Q.** How did the “ability to inhibit levels of total tau” value (tau; 1000 uM) turn out when C#CCN(C)[C@H](C)Cc1ccccc1 [deprenyl] was run?
**A.** *

**Q.** How did the “Percent Inhibition” value (Aβ40 [1]) turn out when Oc1ccc2c3c1O[C@H]1c4[nH]c5ccccc5c4C[C@@]4(O)[C@@H](C2)N(CC2CC2)CC[C@]314 [naltrindole] was run?
**A.** 66%

**Q.** CC(C)C[C@H](CC(=O)NO)C(=O)N[C@H](C(=O)N[C@@H](C)C(=O)NCCN)C(C)(C)C [TAPI-2] was tested. Which “level of sAPPα” value (sAPPα) did it give?
**A.** decrease

**Q.** What does the source list for Cl.Nc1c2c(nc3c1CCC3)CCCC2 [amiridine, cyclopenta[b]quinolin-9-amine, 2,3,5,6,7,8-hexahydro-,monohydrochloride]?
**A.** Percent Inhibition (Aβ40 [1]): 40%; IC50 (Aβ40 [1]; Aβ40 lowering, high priority hits confirmed from independent compound sources, read-out: IC50): 2300 nM

**Q.** For CCN(CC)C(=S)SSC(=S)N(CC)CC [disulfiram], which “ability to inhibit levels of total tau” value (tau; 20 uM) is on record?
**A.** *

**Q.** For C[C@@H](N=C(NC#N)Nc1ccncc1)C(C)(C)C [pinacicil], which “Percent Inhibition” value (Aβ40 [1]) is on record?
**A.** 17%

**Q.** Which “Percent Inhibition” value (Aβ40 [1]) does the source give for CO[C@@H]1[C@@H](O[C@@H]2O[C@H](C)[C@@H](O[C@H]3C[C@@](C)(O)[C@@H](OC(=O)CC(C)C)[C@H](C)O3)[C@H](N(C)C)[C@H]2O)[C@@H](CC=O)C[C@@H](C)[C@@H](O)/C=C/C=C/C[C@@H](C)OC(=O)C[C@H]1O [kitasamycin] here?
**A.** 16%

**Q.** What does the source list for C[C@@H](NC(=O)c1cc(C(=O)N[C@@H](Cc2ccccc2)[C@H](O)CNC2CC2)cc(N(C)S(C)(=O)=O)c1)c1ccccc1 [BACE inhibitor]?
**A.** secretion of Aβ42 (Aβ42; [3]): decreased; IC50 (Aβ42; [4]): 7.8 nM; secretion of sAPPβ (sAPPβ): decreased; secretion of Aβ40 (Aβ40 [2]; [3]): decreased; IC50 (Aβ40 [2]; [4]): 44.7 nM

**Q.** gabexate mesylate was tested. Which “Percent Inhibition” value (Aβ40 [1]) did it give?
**A.** 20%

**Q.** Which “Percent Inhibition” value (Aβ40 [1]) does the source give for COc1ccc(-c2oc3c(CC=C(C)C)c(O[C@@H]4O[C@H](CO)[C@@H](O)[C@H](O)[C@H]4O)cc(O)c3c(=O)c2O[C@@H]2O[C@@H](C)[C@H](O)[C@@H](O)[C@H]2O)cc1 [icariin] here?
**A.** 53%

**Q.** And the IC50 (Aβ40 [1]; Mus musculus, Neuron)?
**A.** 5100 nM

**Q.** CS(=O)(=O)c1ccc(C2=C(c3ccccc3)C(=O)OC2)cc1 [rofecoxib] was tested. Which “Percent Inhibition” value (Aβ40 [1]) did it give?
**A.** 12%

**Q.** How did the “ability to inhibit levels of total tau” value (tau; 1000 uM) turn out when C#CCN(C)Cc1ccccc1 [pargyline] was run?
**A.** *

From US9696306B2, “Methods of reducing levels of tau” (The Trustees of Columbia University in the City of New York, priority 2011, dated 2017)
